Measured values published in a compilation of properties of binary mixtures (doi:10.1016/j.molliq.2022.119944).

Test: xn = mol fraction of the nth substance listed
Details: 101.3 kPa

C=Cn1cc[n+](CCCC)c1.NCC(=O)[O-] + O
Details	electrical conductivity [S/m]	viscosity [mPa·s]
293.15 K, x1 = 0.1	–	7.17
293.15 K, x1 = 0.3	–	23.93
293.15 K, x1 = 0.7	–	403
293.15 K, x1 = 1	–	11700
303.15 K, x1 = 0.1	1.04	7.07
303.15 K, x1 = 0.3	1.75	19.67
303.15 K, x1 = 0.7	1.58	282
303.15 K, x1 = 0.9	0.412	1068
308.15 K, x1 = 0.3	1.94	–
308.15 K, x1 = 0.5	2.95	–
313.15 K, x1 = 0.1	1.19	6.73
313.15 K, x1 = 0.3	2.16	14.44
313.15 K, x1 = 0.5	3.34	33.65
313.15 K, x1 = 0.7	2.31	199
313.15 K, x1 = 0.9	0.653	730
313.15 K, x1 = 1	0.013	5900
318.15 K, x1 = 0.1	1.29	–
318.15 K, x1 = 0.3	2.44	–
318.15 K, x1 = 0.7	2.87	–
318.15 K, x1 = 0.9	0.89	–
318.15 K, x1 = 1	0.018	–
323.15 K, x1 = 0.1	1.35	6.71
323.15 K, x1 = 0.3	2.63	11.28
323.15 K, x1 = 0.5	4.09	28.63
323.15 K, x1 = 0.7	3.25	168
323.15 K, x1 = 0.9	1.2	570
323.15 K, x1 = 1	0.021	3100
333.15 K, x1 = 0.1	–	5.87
333.15 K, x1 = 0.5	–	28.1
333.15 K, x1 = 0.7	–	156
333.15 K, x1 = 0.9	–	540
343.15 K, x1 = 0.1	–	5.29
343.15 K, x1 = 0.5	–	22.04
343.15 K, x1 = 0.7	–	132
343.15 K, x1 = 0.9	–	540
353.15 K, x1 = 0.1	–	5.08
353.15 K, x1 = 0.3	–	9.83
353.15 K, x1 = 0.7	–	104.8

C=C[n+]1ccn(CCCC)c1.N[C@@H](Cc1c[nH]cn1)C(=O)[O-] + O
Details	electrical conductivity [S/m]	viscosity [mPa·s]
293.15 K, x1 = 0.1	–	2.55
293.15 K, x1 = 0.3	–	10.63
293.15 K, x1 = 0.5	–	26.91
293.15 K, x1 = 0.7	–	92.2
293.15 K, x1 = 0.9	–	1475
293.15 K, x1 = 1	–	8300
303.15 K, x1 = 0.1	2.65	2.35
303.15 K, x1 = 0.5	3.61	21.73
303.15 K, x1 = 0.7	2.67	59.5
303.15 K, x1 = 1	0.07	5300
308.15 K, x1 = 0.1	2.94	–
308.15 K, x1 = 0.3	3.79	–
308.15 K, x1 = 0.5	3.85	–
308.15 K, x1 = 0.7	2.95	–
308.15 K, x1 = 0.9	0.75	–
308.15 K, x1 = 1	0.089	–
313.15 K, x1 = 0.1	3.12	2.08
313.15 K, x1 = 0.3	4.12	5.88
313.15 K, x1 = 0.5	4.08	17.2
313.15 K, x1 = 0.7	3.27	43.6
313.15 K, x1 = 0.9	0.99	1026
313.15 K, x1 = 1	0.123	2700
318.15 K, x1 = 0.1	3.32	–
318.15 K, x1 = 0.3	4.38	–
318.15 K, x1 = 0.5	4.37	–
318.15 K, x1 = 0.7	3.6	–
318.15 K, x1 = 0.9	1.27	–
318.15 K, x1 = 1	0.162	–
323.15 K, x1 = 0.1	3.58	1.7
323.15 K, x1 = 0.3	4.7	4.81
323.15 K, x1 = 0.5	4.58	14.68
323.15 K, x1 = 0.7	3.83	33.63
323.15 K, x1 = 0.9	1.64	930
333.15 K, x1 = 0.1	–	1.46
333.15 K, x1 = 0.5	–	14.17
333.15 K, x1 = 0.7	–	29.24
333.15 K, x1 = 0.9	–	550
333.15 K, x1 = 1	–	810
343.15 K, x1 = 0.1	–	1.04
343.15 K, x1 = 0.3	–	4
343.15 K, x1 = 0.5	–	13.4
343.15 K, x1 = 0.9	–	327
343.15 K, x1 = 1	–	500
353.15 K, x1 = 0.1	–	0.95
353.15 K, x1 = 0.3	–	3.68
353.15 K, x1 = 0.7	–	29
353.15 K, x1 = 0.9	–	116
353.15 K, x1 = 1	–	331
